Laboratory results: patent US20190151312A1, “HEPARAN SULFATE BIOSYNTHESIS INHIBITORS FOR THE TREATMENT OF DISEASES” (BioMarin Pharmaceutical Inc., priority 2014, published 2019)

Each compound was assayed on GM01896 cells (MPS II dermal fibroblasts) (assay: Assay 1: MPS cellular assay, MPS II (heparan sulfate disaccharide biomarkers by LC-MS)). Details: Assay 1 for MPS II, heparan sulfate disaccharide biomarkers (I2a4, I2a6, I2S0 and/or I2S6), read-out: IC50 Range.
Format: cell-based, human
Protocol: Dermal fibroblasts from humans with an MPS disorder and from healthy donors are grown. Cells are expanded and kept in culture for analysis. Human foreskin fibroblasts can be obtained from the American Type Culture Collection (CRL-1634). Human dermal fibroblasts derived from biopsies of individuals are purchased from Coriell Institute: clinically healthy individuals, GM00408, GM00409, GM00200 (clinically unaffected sibling of an individual with metachromatic leukodystrophy), GM05659, GM08398, and GM15871 (clinically unaffected sibling of an individual with unclassified Ehlers-Danlos syndrome); heterozygous MPS I carriers, GM01392, GM01393 and GM0003; homozygous individuals affected with MPS I, GM06214, GM11495, GM00034, GM01391 and GM01256; individuals with MPS II, GM01896, GM03181, GM00615 and GM00298; individuals with MPS IIIA, GM00879, GM00643, GM00934, GM06110 and GM00629; MPS IIIB, GM01426; MPS IIIC, GM05157; MPS IIID, GM05093; and MPS VII, GM00121. All cells are grown in DMEM containing 50 U ml-1 penicillin, […] ml-1 streptomycin, 2 mM glutamine and 10% FBS. Cells are seeded on 15-cm-diameter tissue culture dishes, grown to confluence and maintained in culture for analysis. Sulfamidase activity in cell extracts is measured with 4-methylumbelliferyl-α-D-N-sulfoglucosaminide according the vendors instructions substituting Tris-acetate buffer (pH 6.5; Moscerdam).
Cells are treated with a compound of the invention at a concentration at or below 30 μM for 4 to 21 days. Cell monolayers are washed with phosphate buffered saline and detached by treatment with GIBCO trypsin-EDTA solution (Invitrogen). After centrifugation, the supernatant is removed and the cells are lysed in 0.5 mL of 0.1 N sodium hydroxide. The amount of protein is determined by bicinchoninic acid (BCA assay, Thermo Scientific). GAGs are isolated by anion exchange chromatography and digested with glycosaminoglycan lyases (heparinases I, II, and III, IBEX).
Enzymatically depolymerized GAG preparations are differentially mass labeled by reductive amination with [^12C6]aniline. Briefly, heparan sulfate disaccharides (1-10 pmol) are dried down in a centrifugal evaporator and reacted with [^12C6]aniline or [^13C6]aniline (15 μL, 165 μmol) and 15 μL of 1 M NaCNBH3 (Sigma-Aldrich) freshly prepared in dimethylsulfoxide/acetic acid (7:3, v/v) is added to each sample. Reactions are carried out at 37° C. for 16 h and then dried in a centrifugal evaporator. Unsubstituted amines are reacted with propionic anhydride (Sigma-Aldrich). Dried samples are reconstituted in 20 μL of 50% methanol, and 3 μL of propionic anhydride (Sigma-Aldrich, 23.3 μmol) is added. Reactions are carried out at ˜23° C. for 2 h. Acylated disaccharides are subsequently aniline tagged as described above. Each sample is mixed with commercially available standard unsaturated disaccharides (Seikagaku), standard N-sulfoglucosamine, glucosamine-6-sulfate, N-acetylgalactosamine-4-sulfate and N-acetylgalactosamine-6-sulfate (Sigma-Aldrich), and/or synthesized α-L-idopyranosyluronate-(1,4)-2-N-acetyl-2-deoxy-α/β-D-glucopyranoside (I0S0). All standards are tagged with [^13C6]aniline (Sigma-Aldrich). Samples are then analyzed by LC-MS using an LTQ Orbitrap Discovery electrospray ionization mass spectrometer (Thermo Scientific) equipped with quaternary HPLC pump (Finnigan Surveyor MS pump) and a reverse-phase capillary column as described in J. Biol. Chem. 2008, 283(48), 33674.
MPS II: Assay 1, as described above, was used to determine activity for MPS II using GM01896 cells. […] Extracted ion chromatograms were obtained. Cell viability was monitored using alamar blue or ATP quantification. IC50's were calculated using curve fitting within the ChemInnovation CBIS database system.
With `Cn1ccc2ccc(Nc3cc(-c4ccc5c(CCCN6CCCC6)nn(C)c5c4)nc(N4CCOCC4)n3)cc21` [(1-methylindol-6-yl) {6-[1-methyl-3-(3-pyrrolidinylpropyl)(1H-indazol-6-yl)]-2-morpholin-4-ylpyrimidin-4-yl}amine] the IC50 was 500 to 1000 nM.

Same assay, conditions: Homo sapiens, Fibroblast, Assay 1 for MPS II, heparan sulfate disaccharide biomarkers (I2a4, I2a6, I2S0 and/or I2S6), read-out: IC50 Range
`Cc1cn(C)c2cc(Nc3cc(-c4ccc5c(CCN6CCOCC6)nn(C)c5c4)nc(N4CCOCC4)n3)ccc12` [(1,3-dimethylindol-6-yl){6-[1-methyl-3-(2-morpholin-4-ylethyl)(1H-indazol-6-yl)]-2-morpholin-4-ylpyrimidin-4-yl}amine] gave an IC50 of 500 to 1000 nM. In the case of `Cn1nc(CCN2CCOCC2)c2ccc(-c3cc(Nc4ccc5ccn(C6CC6)c5c4)nc(N4CCOCC4)n3)cc21` [(1-cyclopropylindol-6-yl) {6-[1-methyl-3-(2-morpholin-4-ylethyl)(1H-indazol-6-yl)]-2-morpholin-4-ylpyrimidin-4-yl}amine], the IC50 is reported as 1000 to 5000 nM. Compound `CCn1ccc2ccc(Nc3cc(-c4ccc5cnn(C)c5c4)nc(N4CCOCC4)n3)cc21` [(1-ethylindol-6-yl)[6-(1-methyl(1H-indazol-6-yl))-2-morpholin-4-ylpyrimidin-4-yl]amine] has an IC50 of 1000 to 5000 nM. Compound `Cn1ncc2cc(Nc3cc(-c4ccc5cnn(C)c5c4)nc(N4CCOCC4)n3)ccc21` [(1-methyl(1H-indazol-5-yl))[6-(1-methyl(1H-indazol-6-yl))-2-morpholin-4-ylpyrimidin-4-yl]amine] has an IC50 of 1000 to 5000 nM. `Cn1ncc2ccc(Nc3cc(-c4ccc5cnn(C)c5c4)nc(N4CCOCC4)n3)cc21` [(1-methyl(1H-indazol-6-yl))[6-(1-methyl(1H-indazol-6-yl))-2-morpholin-4-ylpyrimidin-4-yl]amine] was tested, and the IC50 was 1000 to 5000 nM. For `Cn1ccc2ccc(Nc3cc(-c4ccc5c(CCN6CCOCC6)nn(C)c5c4)nc(N4CCOCC4)n3)cc21` [(1-methylindol-6-yl){6-[1-methyl-3-(2-morpholin-4-ylethyl)(1H-indazol-6-yl)]-2-morpholin-4-ylpyrimidin-4-yl}amine], the IC50 was < 500 nM. `COc1cc(Nc2cc(-c3ccc4c(cnn4C)c3)nc(N3CCOCC3)n2)ccn1` [(2-methoxy(4-pyridyl))[6-(1-methyl(1H-indazol-5-yl))-2-morpholin-4-ylpyrimidin-4-yl]amine] showed an IC50 of 1000 to 5000 nM. `COc1cc(Nc2cc(-c3ccc4cnn(C)c4c3)nc(N3CCOCC3)n2)ccn1` [(2-methoxy(4-pyridyl))[6-(1-methyl(1H-indazol-6-yl))-2-morpholin-4-ylpyrimidin-4-yl]amine] showed an IC50 of 500 to 1000 nM. `COc1cc(Nc2cc(-c3ccc4c(c3)ncn4C)nc(N3CCOCC3)n2)ccn1` [(2-methoxy(4-pyridyl))[6-(1-methylbenzimidazol-5-yl)-2-morpholin-4-ylpyrimidin-4-yl]amine] gave an IC50 of 1000 to 5000 nM. `COc1cc(Nc2cc(-c3ccc4ncn(C)c4c3)nc(N3CCOCC3)n2)ccn1` [(2-methoxy(4-pyridyl))[6-(1-methylbenzimidazol-6-yl)-2-morpholin-4-ylpyrimidin-4-yl]amine] gave an IC50 of 500 to 1000 nM. In the case of `Cc1nn(C)c2cc(-c3cc(Nc4ccc(-c5cnn[nH]5)cc4)nc(N4CCOCC4)n3)ccc12` [(4-(1H-1,2,3-triazol-5-yl)phenyl)[6-(1,3-dimethyl(1H-indazol-6-yl))-2-morpholin-4-ylpyrimidin-4-yl]amine], the IC50 is reported as 500 to 1000 nM. `Cn1ncc2ccc(-c3cc(Nc4ccc(-c5cnn[nH]5)cc4)nc(N4CCOCC4)n3)cc21` [(4-(1H-1,2,3-triazol-5-yl)phenyl)[6-(1-methyl(1H-indazol-6-yl))-2-morpholin-4-ylpyrimidin-4-yl]amine] showed an IC50 of 1000 to 5000 nM. In the case of `Cc1nn(C)c2cc(-c3cc(Nc4ccc(-c5nnc[nH]5)cc4)nc(N4CCOCC4)n3)ccc12` [(4-(4H-1,2,4-triazol-3-yl)phenyl)[6-(1,3-dimethyl(1H-indazol-6-yl))-2-morpholin-4-ylpyrimidin-4-yl]amine], the IC50 is reported as < 500 nM. For `Cc1nn(C)c2cc(-c3cc(Nc4ccc(-c5nnc[nH]5)cc4)nc(N4CCOCC4)n3)cnc12` [(4-(4H-1,2,4-triazol-3-yl)phenyl)[6-(1,3-dimethylpyrazolo[4,5-b]pyridin-6-yl)-2-morpholin-4-ylpyrimidin-4-yl]amine], the IC50 was < 500 nM. With `Cn1ncc2ccc(-c3cc(Nc4ccc(-c5nnc[nH]5)cc4)nc(N4CCOCC4)n3)cc21` [(4-(4H-1,2,4-triazol-3-yl)phenyl)[6-(1-methyl(1H-indazol-6-yl))-2-morpholin-4-ylpyrimidin-4-yl]amine] the IC50 was < 500 nM. For `Cn1ncc2ncc(-c3cc(Nc4ccc(-c5nnc[nH]5)cc4)nc(N4CCOCC4)n3)cc21` [(4-(4H-1,2,4-triazol-3-yl)phenyl)[6-(1-methylpyrazolo[4,5-b]pyridin-6-yl)-2-morpholin-4-ylpyrimidin-4-yl]amine], the IC50 was < 500 nM. Work on `Cn1cnc2ccc(-c3cc(Nc4ccc(Br)cc4)nc(N4CCOCC4)n3)cc21` [(4-bromophenyl)[6-(1-methylbenzimidazol-6-yl)-2-morpholin-4-ylpyrimidin-4-yl]amine] yielded an IC50 of 500 to 1000 nM. With `Cn1nc(CCN2CCOCC2)c2ccc(-c3cc(Nc4ccc(Br)cc4)nc(N4CCOCC4)n3)cc21` [(4-bromophenyl){6-[1-methyl-3-(2-morpholin-4-ylethyl)(1H-indazol-6-yl)]-2-morpholin-4-ylpyrimidin-4-yl}amine] the IC50 was 500 to 1000 nM. For `CN1CCN(CCn2ncc3ccc(-c4cc(Nc5ccc(Cl)cc5)nc(N5CCOCC5)n4)cc32)CC1` [(4-chlorophenyl)(6-{1-[2-(4-methylpiperazinyl)ethyl](1H-indazol-6-yl)}-2-morpholin-4-ylpyrimidin-4-yl)amine], the IC50 was 500 to 1000 nM. Compound `CN1CCN(CCCn2ncc3ccc(-c4cc(Nc5ccc(Cl)cc5)nc(N5CCOCC5)n4)cc32)CC1` [(4-chlorophenyl)(6-{1-[3-(4-methylpiperazinyl)propyl](1H-indazol-6-yl)}-2-morpholin-4-ylpyrimidin-4-yl)amine] has an IC50 of 500 to 1000 nM. `CN1CCN(CCc2nn(C)c3cc(-c4cc(Nc5ccc(Cl)cc5)nc(N5CCOCC5)n4)ccc23)CC1` [(4-chlorophenyl)(6-{1-methyl-3-[2-(4-methylpiperazinyl)ethyl](1H-indazol-6-yl)}-2-morpholin-4-ylpyrimidin-4-yl)amine] gave an IC50 of 500 to 1000 nM. Compound `Cn1nc(NCCN2CCOCC2)c2ccc(-c3cc(Nc4ccc(Cl)cc4)nc(N4CCOCC4)n3)cc21` [(4-chlorophenyl)(6-{1-methyl-3-[(2-morpholin-4-ylethyl)amino](1H-indazol-6-yl)}-2-morpholin-4-ylpyrimidin-4-yl)amine] has an IC50 of 500 to 1000 nM. Work on `Cn1nc(NCCN2CCCC2)c2ccc(-c3cc(Nc4ccc(Cl)cc4)nc(N4CCOCC4)n3)cc21` [(4-chlorophenyl)(6-{1-methyl-3-[(2-pyrrolidinylethyl)amino](1H-indazol-6-yl)}-2-morpholin-4-ylpyrimidin-4-yl)amine] yielded an IC50 of 500 to 1000 nM. Compound `Cn1nc(NCCCN2CCOCC2)c2ccc(-c3cc(Nc4ccc(Cl)cc4)nc(N4CCOCC4)n3)cc21` [(4-chlorophenyl)(6-{1-methyl-3-[(3-morpholin-4-ylpropyl)amino](1H-indazol-6-yl)}-2-morpholin-4-ylpyrimidin-4-yl)amine] has an IC50 of 500 to 1000 nM. `Cn1nc(NCCCN2CCCC2)c2ccc(-c3cc(Nc4ccc(Cl)cc4)nc(N4CCOCC4)n3)cc21` [(4-chlorophenyl)(6-{1-methyl-3-[(3-pyrrolidinylpropyl)amino](1H-indazol-6-yl)}-2-morpholin-4-ylpyrimidin-4-yl)amine] gave an IC50 of 1000 to 5000 nM. For `CN1CCN(Cc2nn(C)c3cc(-c4cc(Nc5ccc(Cl)cc5)nc(N5CCOCC5)n4)ccc23)CC1` [(4-chlorophenyl)(6-{1-methyl-3-[(4-methylpiperazinyl)methyl](1H-indazol-6-yl)}-2-morpholin-4-ylpyrimidin-4-yl)amine], the IC50 was 500 to 1000 nM.
